Earlier results, collected in patent US4039549A, “Olefinic derivatives of amino acids” (Merrell Toraude et Compagnie, priority 1976, dated 1977).

Experiments:
[1] = test system: γ-aminobutyric acid transaminase; conditions: literature
[2] = test system: brain levels of γ-aminobutyric acid; conditions: reversible effect; literature

Row | SMILES | inhibition of γ-aminobutyric acid transaminase (mode) [1] | duration of effect (elevation of brain γ-aminobutyric acid levels) [2]
1 | NCC#CC(=O)O [4-aminotetrolic acid] | competitive reversible inhibitor | –
2 | CCCC(CCC)C(=O)O [n-dipropylacetate] | competitively inhibiting | about 2 hours
